Assay results taken from patent US20210332320A1, “ANTIMICROBIC SUSCEPTIBILITY TESTING USING MACHINE LEARNING” (Beckman Coulter, Inc., priority 2018, published 2021).

Experiments:
Format in all cases: cell-based
P. fluorescens [1] = test: Actual MIC (reference read after full growth period)
Experimental: In AST testing, a plurality of test wells are filled with inoculum and increasing concentrations of a number of different antimicrobial agents, for example antibiotics. The different antimicrobial agents may be diluted in a growth medium or liquid medium to concentrations that include those of clinical interest. After incubation, the turbidity will be increased or unchanged in test wells where growth has not been inhibited by the antimicrobics in those test wells. The MIC of each antimicrobial agent is measured by lack of growth with respect to each concentration of antimicrobial agent. It follows that the lowest concentration of antimicrobial agent displaying a lack of growth is the MIC. As set forth above, neural networks can be used to model growth patterns of a bacterial isolate over time at various drug concentrations. As long as the bacteria grows in the well with no drug, then a neural network can be created to use the count and area of the growth well and at the various drug concentrations to make an early prediction of the MIC. […]

P. fluorescens [2] = test: MIC prediction by neural network from digital microscopy of AST test wells
Text: FIG. 8 provides an illustration of how data that can be used in an optimized AST method 101 can be captured from a test well. Test well 20 is embodied by a “384” style test well, having a clear viewing bottom. The volume of inoculum in test well 20 may be set to 20 microliters to reduce the amount of materials such as bulk diluents required by AST method 101 and/or minimize light artifacts and provide sampling of a consistent number of microbes from the 1:250 dilution of the 0.5 MacFarland inoculum. Decreasing the volume of inoculum in test well 20 generally increases the light artifacts. In some instances, capturing a single vertical plane 103 at 20× objective whereby AST camera 35 is set at 0.33 microns/pixel may be sufficient for sampling the inoculum and ensuring that each individual microbe is recognizable. However, these parameters are configurable and may change as desired by the user or the underlying needs of the system. Capturing three focal sites spaced about 5 microns apart within single vertical plane 103 may also provide a sufficient number of microbes in the sample to count for use in optimized AST method 101. These three focal sites are labeled site 105, site 107, and site 109 in FIG. 8. In an exemplary version of optimized AST method 101, each focal site is approximately 700×700 microns within single vertical plane 103, rather than capturing three sites in three different vertical planes. AST camera 35, optics system 9, and computer 49 are configured to capture an image of each focal site in consecutive time periods, manipulate each of these images, and thereafter use the data derived from these manipulated images to make a MIC determination. In some embodiments, to use a neural network such as illustrated in FIG. 24 to make a MIC prediction, a test well containing some concentration of an antimicrobial could be inoculated with a microorganism. Data could then be gathered by taking measurements in a manner similar to that described above in the context of the decision tree and neural network classifiers of FIGS. 20-23B and 25. These measurements, along with the identity and concentration of the antimicrobial in the test well could then be provided as inputs to the neural network's input nodes. The values provided on the network's output nodes could then be treated as indications of the likelihood that the concentrations corresponding to the output nodes were the MIC for the microorganism added to the test well. For example, when using a network which had been trained to provide a likelihood that a first concentration is the MIC on a first output node, a likelihood that a second concentration is the MIC on a second output node, and a likelihood that a third concentration is the MIC on a third output node, the concentration corresponding to the output node with the highest value (which might not be the same as the concentration of the antimicrobial in the test well from which the data was gathered) could be treated as the MIC. In some embodiments, rather than using values of the output nodes of a network such as shown in FIG. 24 as directly indicating the MIC, values from such output nodes may be used as inputs to another function that would provide a (potentially more reliable) MIC value. For example, in some embodiments, separate sets of measurements could be gathered from each of a plurality of test wells having different concentrations of the same antimicrobial, and those sets of measurements could each be provided as input to a neural network such as illustrated in FIG. 24. Each of those neural networks would then provide a prediction of the most likely MIC, and those predictions could be provided as input to another function (e.g., a statistical function, such as a mode or median identification function) that would provide a prediction that would be treated as the true MIC for the sample.

E. coli bacteria = test: Digital microscopy of E. coli bacteria exposed to antibiotic dilution (elongation); settings: FIG. 17 versus unexposed FIG. 18
Text: Data extraction step 117 may be configured to derive information regarding the ratio between the total count of microbes and the total area occupied by all of the microbes in the image. This information may be useful in determining whether the microbes are undergoing elongation over time. Elongation is a precursor to death and indicates the concentration of the antimicrobic dilution is negatively affecting the microbes. More specifically, elongation may occur when microbes such as bacteria encounter an effective amount of antibiotic drugs. For example, FIGS. 17 and 18 depict microbes embodied by E. coli bacteria. FIG. 17 depicts the E. coli after being exposed to a dilution of the antibiotic ampicillin, while FIG. 18 depicts the E. coli free from any ampicillin exposure. […] This elongation is a precursor to the death of the bacteria and illustrates that the concentration of ampicillin is sufficient to neutralize the bacteria. FIG. 18 illustrates normal growth. It follows that the ratio between the total area occupied by all of the bacteria and the bacteria count will increase over time to represent each bacterium elongating. For example, if a particular image sample includes 100 bacteria and each bacterium measures approximately 4 pixels each, the area occupied by the 100 bacteria within the image is 400 pixels. In this image sample, the ratio of bacteria area to bacteria count is 4.0. […]

| SMILES | actual MIC (P. fluorescens [1]) | final predicted MIC (P. fluorescens [2]; median of the predictions of the 11 drug concentration wells) | Predicted MIC (P. fluorescens [2]; prediction from test well with dilution 0.06 μg/ml) | Predicted MIC (P. fluorescens [2]; prediction from test well with dilution 0.12 μg/ml) | Predicted MIC (P. fluorescens [2]; prediction from test well with dilution 0.25 μg/ml) | Predicted MIC (P. fluorescens [2]; prediction from test well with dilution 0.5 μg/ml) | Predicted MIC (P. fluorescens [2]; prediction from test well with dilution 1 μg/ml) | Predicted MIC (P. fluorescens [2]; prediction from test well with dilution 2 μg/ml) | Predicted MIC (P. fluorescens [2]; prediction from test well with dilution 4 μg/ml) | Predicted MIC (P. fluorescens [2]; prediction from test well with dilution 8 μg/ml) | Predicted MIC (P. fluorescens [2]; prediction from test well with dilution 16 μg/ml) | Predicted MIC (P. fluorescens [2]; prediction from test well with dilution 32 μg/ml) | Predicted MIC (P. fluorescens [2]; prediction from test well with dilution 64 μg/ml) | growth morphology after exposure to a dilution of the antibiotic (E. coli bacteria) |
| --- | --- | --- | --- | --- | --- | --- | --- | --- | --- | --- | --- | --- | --- | --- |
| CC(C)(O/N=C(\C(=O)N[C@@H]1C(=O)N2C(C(=O)[O-])=C(C[n+]3ccccc3)CS[C@H]12)c1csc(N)n1)C(=O)O [Caz, Ceftazidime] | example was 2. μg/ml | which in this case is 2. μg/ml | 2 µg/mL | 2 µg/mL | 2 µg/mL | 2 µg/mL | 2 µg/mL | 2 µg/mL | 32 µg/mL | 2 µg/mL | 2 µg/mL | 2 µg/mL | 2 µg/mL | – |
| CC1(C)S[C@@H]2[C@H](NC(=O)[C@H](N)c3ccccc3)C(=O)N2[C@H]1C(=O)O [ampicillin] | – | – | – | – | – | – | – | – | – | – | – | – | – | abnormal growth in the form of elongation |
